# Earlier results, collected in US20100221361A1, “STABLE OXIDIZING BROMINE COMPOSITION, METHOD OF MANUFACTURE AND USE THEREOF FOR BIOFOULING CONTROL” (priority 2009, published 2010).
# Settings: in water
smiles,measurement,value
"BrBr [elemental liquid bromine, bromine]",solubility,< 4 g/ 100 g water
